# Data reported in patent US11597727B2 (THE REGENTS OF THE UNIVERSITY OF CALIFORNIA, priority 2018, dated 2023).
# Biological target: T1, integrin α2β1 (Homo sapiens, UniProt P05556+P17301)
# Test: HT 1080 cell adhesion assay on rat tail collagen I
# Type: cell-based
# Set-up: HT1080 (human fibrosarcoma) cells (or human airway smooth muscle cells) were detached and resuspended in serum-free DMEM; endogenous in cells; host or cells: HT1080 human fibrosarcoma cells
# Conditions: HT1080 (human fibrosarcoma) cells on rat tail collagen I, absorbance at 595 nm, triplicate; read-out: IC50s from HT 1080 Cell adhesion assay
# Procedure: (§1) Cell adhesion Assay: Ninety-six-well flat-bottomed tissue culture plates were coated with rat tail collagen I for 1 hour at 37° C. After incubation, wells were blocked with 1% BSA at 37° C. for 1 hour. Control wells were filled with 1% BSA. HT1080 (human fibrosarcoma) cells (or human airway smooth muscle cells) were detached and resuspended in serum-free DMEM. Cells were incubated with anti-integrin alpha2 antibody control or 10-fold dilutions of each compound with a starting concentration of 10 uM for 15 minutes at 4° C. before plating. The plates were centrifuged at 10 g for 5 minutes before incubation for 1 hour at 37° C. in humidified 5% CO2. Nonadherent cells were removed by centrifugation (top side down) at 10 g for 5 minutes. Attached cells were stained with 0.5% crystal violet, and the wells were washed with PBS. The relative number of cells in each well was evaluated after solubilization in 40 μl of 2% Triton X-100 by measuring absorbance at 595 nm in a microplate reader. All determinations were carried out in triplicate.
# T1 sequence (P17301 30-1181): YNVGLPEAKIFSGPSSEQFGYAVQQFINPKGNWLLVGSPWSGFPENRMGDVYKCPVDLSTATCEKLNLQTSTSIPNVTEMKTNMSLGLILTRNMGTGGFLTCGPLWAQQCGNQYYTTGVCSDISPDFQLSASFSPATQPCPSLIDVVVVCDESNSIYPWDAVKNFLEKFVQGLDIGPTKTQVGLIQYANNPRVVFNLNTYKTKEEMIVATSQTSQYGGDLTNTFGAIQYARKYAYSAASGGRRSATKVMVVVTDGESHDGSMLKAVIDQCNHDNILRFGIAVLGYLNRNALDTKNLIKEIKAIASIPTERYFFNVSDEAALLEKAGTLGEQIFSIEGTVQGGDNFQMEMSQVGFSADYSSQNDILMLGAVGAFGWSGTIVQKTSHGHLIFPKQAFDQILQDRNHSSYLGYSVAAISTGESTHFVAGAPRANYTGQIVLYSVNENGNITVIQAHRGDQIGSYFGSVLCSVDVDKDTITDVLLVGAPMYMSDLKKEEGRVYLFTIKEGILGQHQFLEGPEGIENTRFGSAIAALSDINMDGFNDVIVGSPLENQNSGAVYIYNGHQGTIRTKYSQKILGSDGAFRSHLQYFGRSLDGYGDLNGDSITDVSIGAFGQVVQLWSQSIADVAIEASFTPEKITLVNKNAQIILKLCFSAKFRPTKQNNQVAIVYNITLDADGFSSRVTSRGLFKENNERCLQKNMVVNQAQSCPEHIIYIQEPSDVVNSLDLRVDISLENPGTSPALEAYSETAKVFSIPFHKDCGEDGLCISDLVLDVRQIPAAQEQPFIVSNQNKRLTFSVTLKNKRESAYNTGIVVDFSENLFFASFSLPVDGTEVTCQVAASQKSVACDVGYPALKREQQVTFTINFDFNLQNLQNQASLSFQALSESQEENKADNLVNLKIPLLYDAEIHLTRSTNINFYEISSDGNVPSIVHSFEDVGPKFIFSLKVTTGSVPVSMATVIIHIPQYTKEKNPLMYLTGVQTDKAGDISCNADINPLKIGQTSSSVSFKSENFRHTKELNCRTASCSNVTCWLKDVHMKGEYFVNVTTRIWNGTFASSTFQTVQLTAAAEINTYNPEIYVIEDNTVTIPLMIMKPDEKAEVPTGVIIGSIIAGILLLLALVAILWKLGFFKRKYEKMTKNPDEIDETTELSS
# T1 sequence (P05556 21-798): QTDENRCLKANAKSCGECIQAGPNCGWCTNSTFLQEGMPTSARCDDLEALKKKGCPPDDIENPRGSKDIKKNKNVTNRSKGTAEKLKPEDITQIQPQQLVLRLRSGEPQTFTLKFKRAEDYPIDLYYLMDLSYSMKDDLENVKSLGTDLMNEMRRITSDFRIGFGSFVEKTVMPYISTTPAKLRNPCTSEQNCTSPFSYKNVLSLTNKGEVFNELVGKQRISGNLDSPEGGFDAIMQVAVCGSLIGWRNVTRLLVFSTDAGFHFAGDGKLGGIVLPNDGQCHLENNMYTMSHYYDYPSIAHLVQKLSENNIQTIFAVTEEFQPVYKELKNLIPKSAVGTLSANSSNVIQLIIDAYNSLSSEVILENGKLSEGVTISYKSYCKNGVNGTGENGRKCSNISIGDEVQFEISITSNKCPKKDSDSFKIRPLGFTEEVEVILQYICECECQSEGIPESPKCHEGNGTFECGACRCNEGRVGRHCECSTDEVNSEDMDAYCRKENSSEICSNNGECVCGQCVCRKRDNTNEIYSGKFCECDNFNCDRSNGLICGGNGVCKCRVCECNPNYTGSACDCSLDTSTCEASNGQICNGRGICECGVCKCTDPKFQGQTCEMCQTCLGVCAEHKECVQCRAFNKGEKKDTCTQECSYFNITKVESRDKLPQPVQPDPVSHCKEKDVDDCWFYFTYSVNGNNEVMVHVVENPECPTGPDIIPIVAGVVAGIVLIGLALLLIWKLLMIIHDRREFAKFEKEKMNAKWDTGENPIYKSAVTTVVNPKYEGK
row,Structure (SMILES),IC50
1,"CC(CC12CC3CC(CC(C3)C1)C2)NC(=O)NC[C@H](NC(=O)c1c(Cl)cccc1Cl)C(=O)O (stereo partly drawn) [A2-155, (2S)-3-(3-(1-(adamantan-1-yl)propan-2-yl)ureido)-2-(2,6-dichlorobenzamido)propanoic acid]",10 to 100 µM
2,"O=C(NCC1CC12CCCCC2)NC[C@H](NC(=O)c1c(Cl)cccc1Cl)C(=O)O (stereo partly drawn) [A2-177, (2S)-2-(2,6-dichlorobenzamido)-3-(3-(spiro[2.51]octan-1-ylmethyl)ureido)propanoic acid]",10 to 100 µM
3,"O=C(NCc1ccc(Cl)cc1)NC[C@H](NC(=O)c1c(Cl)cccc1Cl)C(=O)O [KZ-1-26, (S)-3-(3-(4-chlorobenzyl)ureido)-2-(2,6-dichlorobenzamido)propanoic acid]",> 100 µM
4,"O=C(NC[C@H](NC(=O)c1c(Cl)cccc1Cl)C(=O)O)Nc1ccccc1 [KZ-1-25, (S)-2-(2,6-dichlorobenzamido)-3-(3-phenylureido)propanoic acid]",> 100 µM

# Now from value to molecule:
row,IC50,Structure (SMILES)
1,< 10 µM,"O=C(NCc1ccccc1)NC[C@H](NC(=O)c1c(Cl)cncc1Cl)C(=O)O [A2-29, (S)-3-(3-benzylureido)-2-(3,5-dichloroisonicotinamido)propanoic acid]"
2,> 100 µM,"CCCNC(=O)NC[C@H](NC(=O)c1c(Cl)cccc1Cl)C(=O)O [KZ-1-27, (S)-2-(2,6-dichlorobenzamido)-3-(3-propylureido)propanoic acid]"
3,> 100 µM,"O=C(NCc1ccc(C(F)(F)F)cc1)NC[C@H](NC(=O)c1c(Cl)cccc1Cl)C(=O)O [KZ-1-30, (S)-2-(2,6-dichlorobenzamido)-3-(3-(4-(trifluoromethyl)benzyl)ureido)propanoic acid]"

# Biological target: T1, integrin α2β1
# Test: Cell adhesion assay, adhesion to collagen in vitro (cell type not stated for these values)
# Type: cell-based
# Set-up: endogenous in cells
# Conditions: compared with c15
# Procedure: as §1
row,fold less potent than c15 in a cell adhesion assay,Structure (SMILES)
1,2 fold,"O=C(NCc1ccccc1)NC[C@H](NC(=O)c1c(Cl)cccc1Cl)C(=O)O [A2-4, (S)-3-(3-benzylureido)-2-(2,6-dichlorobenzamido)propanoic acid]"
